Source: patent US20100029654A1, “CARDIOVASCULAR COMPOSITIONS AND USE OF THE SAME FOR THE TREATMENT OF ALZHEIMER'S DISEASE” (MOUNT SINAI SCHOOL OF MEDICINE, priority 2006, published 2010)
pEC50: −log10 of the molar value. Counter-ions that a name gives are not always drawn. Like-named read-outs stand apart in the source and are kept apart here.

Assays:
Aβ1-40 = Aβ1-40 content in conditioned medium of primary cortico-hippocampal neuron cultures from Tg2576 mice (ELISA; primary and secondary dose-response screening); format: cell-based, mouse; settings: for activity at 100 µM: Mus musculus, Neuron, 24 h, read-out: Ab1-40 (% of ctl); for activity at 100 µM / Ab1-40 (% of ctl): drug 100 μM; for reduced Aβ1-40: <85% of ctl
Method: (§1) Potential Aβ-lowering activity was assessed for 150 commercially available cardiovascular drugs using primary cortico-hippocampal neuron cultures derived from embryonic Tg2576 (El 6). […] All cardiovascular reagents were obtained from MicroSource Discovery Systems Inc (Gaylordsville, Conn.). […] Individual cardiovascular agents were applied directly to the culture medium (final 1% DMSO in the culture media). In control studies, parallel Tg2576 primary neuron cultures were treated with vehicle (1% DMSO) alone. The influence of drug treatments in Aβ content in the conditioned medium in treated cultures was assessed by assessing steady state levels of Aβ1-40 and Aβ1-42 in the culture media 24 hours after treatment.
(§2) Embryonic brain tissue was mechanically triturated and centrifuged. Neurons were seeded onto poly-D-lysine-coated 96-well plates at 1.0×10^5 cells per well and cultured in the serum-free chemically-defined medium Neurobasal, supplemented with 2% B27, 0.5 mM L-glutamine and 1% penicillin-streptomycin (Gibco-BRL).
(§3) For primary screening, cultured neurons were treated with 100 μM of drug in duplicates for 16 hours; all drugs were obtained in stock from MicroSource Discovery Systems Inc (Gaylordsville, Conn.). Conditioned medium was collected for Aβ detection using commercially available ELISA kits (BioSource). […] Primary neurons prepared in 96-well plates were treated with 0.1 μM, 1 μM, 10 μM, 50 μM, and 100 μM of each drug in duplicate for ˜16 hours and conditioned medium was collected for Aβ detection.

[1] = tested on: primary cortico-hippocampal neuron cultures; assay: MTT in primary screening
Aβ1-42 = Aβ1-42 content in conditioned medium of primary cortico-hippocampal neuron cultures from Tg2576 mice (ELISA; primary and secondary dose-response screening); format: cell-based, mouse; settings: for activity at 100 µM: Mus musculus, Neuron, 24 h, read-out: Ab1-42 (% of ctl); for activity at 100 µM / Ab1-42 (% of ctl): drug 100 μM; for reducing Aβ1-42: <85% of ctl
Method: as §1, §2, §3

[2] = tested on: primary cortico-hippocampal neuron cultures; assay: lactate dehydrogenase (LDH) activity assay in parallel neuron cultures
Method: For in vitro treatments drugs available from “The Spectrum Collection” in stocks of 10 mM in DMSO were applied directly to cultures to the desired concentrations (final 1% DMSO); control primary neuron cultures from Tg2576 embryos were treated with vehicle resulting in a final 1% DMSO.
Cell viability was assessed using a commercial available LDH assay kit according to the manufacture's instruction (Promega).

[3] = Primary Screening, table sorted by Aβ1-40
[4] = primary screening, Tg2576 neuron cultures, table sorted by Aβ1-42
[5] = primary screening, table sorted by Aβ1-42

| Compound | MTT (% of ctl) [1, 3] | MTT (% of ctl) [1, 5] | LDH (% of ctl) [2, 3] | LDH (% of ctl) [2, 5] | pEC50 (Aβ1-40; secondary dose-response screening 0.01-100 μM, 24 hours, read-out: EC50 (molar) Aβ1-40) | LDH at E-5M % of change ([2]; drug at E-5M) [%] | activity at 100 µM (Aβ1-40; [3]) [%] | activity at 100 µM (Aβ1-40; [4]) [%] | activity at 100 µM (Aβ1-42; [3]) [%] | activity at 100 µM (Aβ1-42; [4]) [%] | reduced Aβ1-40 (Aβ1-40; primary screening) | reducing Aβ1-42 (Aβ1-42; primary screening) | Ab1-40 (% of ctl) (Aβ1-40; [3]) | Ab1-40 (% of ctl) (Aβ1-40; [4]) | Ab1-42 (% of ctl) (Aβ1-42; [3]) | Ab1-42 (% of ctl) (Aβ1-42; [4]) |
| --- | --- | --- | --- | --- | --- | --- | --- | --- | --- | --- | --- | --- | --- | --- | --- | --- |
| COc1cc([S+](C)[O-])ccc1-c1nc2ncccc2[nH]1 (stereo not shown) [Sulmazole] | 115.0 % of ctl | 115.0 % of ctl | 111.1 % of ctl | 111.1 % of ctl |  |  | 116 | 116 | 93.2 | 93.2 |  |  |  |  |  |  |
| C[N+]1(CCCCC[N+]2(C)CCCC2)CCCC1 [Pentolinium Tartrate] | 103.8 % of ctl | 103.8 % of ctl | 118.0 % of ctl | 118.0 % of ctl |  |  | 121 | 121 | 134 | 134 |  |  |  |  |  |  |
| CCN(CC)CCNC(=O)c1ccc(N)cc1 [Procainamide Hydrochloride] | 96.8 % of ctl | 96.8 % of ctl | 111.1 % of ctl | 111.1 % of ctl |  |  | 118 | 118 | 109 | 109 |  |  |  |  |  |  |
| CCOC(=O)C1=C[C@]2(CC)CCCN3CCc4c(n1c1ccccc41)[C@@H]32 [Vinpocetine] | 87.7 % of ctl | 87.7 % of ctl | 111.3 % of ctl | 111.3 % of ctl |  |  | 60.4 | 60.4 | 105 | 105 | reduced Aβ1-40 |  |  |  |  |  |
| CC(C)(C)NCC(O)COc1cccc2c1CC(O)C(O)C2 (stereo not shown) [Nadolol] | 102.8 % of ctl | 102.8 % of ctl | 106.5 % of ctl | 106.5 % of ctl |  |  | 94.2 | 94.2 | 113 | 113 |  |  |  |  |  |  |
| CC1=NS(=O)(=O)c2cc(Cl)ccc2N1 [Diazoxide] | 97.8 % of ctl | 97.8 % of ctl | 112.0 % of ctl | 112.0 % of ctl |  |  | 114 | 114 | 98.9 | 98.9 |  |  |  |  |  |  |
| CCOC(=O)[C@H](CCc1ccccc1)N[C@@H](C)C(=O)N1[C@H](C(=O)O)C[C@H]2CCCC[C@@H]21 [Trandolapril] | 91.5 % of ctl | 91.5 % of ctl | 95.5 % of ctl | 95.5 % of ctl |  |  | 137 | 137 | 111 | 111 |  |  |  |  |  |  |
| CC(C)c1c(C(=O)Nc2ccccc2)c(-c2ccccc2)c(-c2ccc(F)cc2)n1CC[C@@H](O)C[C@@H](O)CC(=O)[O-].CC(C)c1c(C(=O)Nc2ccccc2)c(-c2ccccc2)c(-c2ccc(F)cc2)n1CC[C@@H](O)C[C@@H](O)CC(=O)[O-].[Ca+2] [Atorvastatin Calcium] | 98.4 % of ctl | 98.4 % of ctl | 99.4 % of ctl | 99.4 % of ctl |  |  |  |  |  |  | reduced Aβ1-40 | useful in reducing Aβ1-42 | 66.0 % of ctl | 66.0 % of ctl | 76.9 % of ctl | 76.9 % of ctl |
| NS(=O)(=O)c1cc(C2(O)NC(=O)c3ccccc32)ccc1Cl (stereo not shown) [Chlorthalidone] | 12.1 % of ctl | 12.1 % of ctl | 645.8 % of ctl | 645.8 % of ctl |  |  | 108 | 108 | 96.7 | 96.7 |  |  |  |  |  |  |
| COc1ccc([C@@H]2Sc3ccccc3N(CCN(C)C)C(=O)[C@@H]2OC(C)=O)cc1 [Diltiazem Hydrochloride] | 97.8 % of ctl | 97.8 % of ctl | 96.1 % of ctl | 96.1 % of ctl |  |  | 108 | 108 | 98.9 | 98.9 |  |  |  |  |  |  |
| CCC(C(N)=O)c1ccccc1 (stereo not shown) [Fenbutyramide] | 108.6 % of ctl | 108.6 % of ctl | 135.0 % of ctl | 135.0 % of ctl |  |  | 91.6 | 91.6 | 96.3 | 96.3 |  |  |  |  |  |  |
| O=c1oc2ccccc2c(O)c1Cc1c(O)c2ccccc2oc1=O [Dicumarol] | 97.0 % of ctl | 97.0 % of ctl | 93.3 % of ctl | 93.3 % of ctl |  |  | 51.3 | 51.3 | 54 | 54 | reduced Aβ1-40 | useful in reducing Aβ1-42 |  |  |  |  |
| CCN(CC)CCOC(=O)C(Cc1cccc2ccccc12)CC1CCCO1 (stereo not shown) [Nafronyl Oxalate] | 103.2 % of ctl | 103.2 % of ctl | 96.6 % of ctl | 96.6 % of ctl |  |  | 134 | 134 | 145 | 145 |  |  |  |  |  |  |

More lines, main results first:

| MTT (% of ctl) [1, 3] | MTT (% of ctl) [1, 5] | LDH (% of ctl) [2, 3] | LDH (% of ctl) [2, 5] | pEC50 (Aβ1-40; secondary dose-response screening 0.01-100 μM, 24 hours, read-out: EC50 (molar) Aβ1-40) | LDH at E-5M % of change ([2]; drug at E-5M) [%] | Compound | activity at 100 µM (Aβ1-40; [3]) [%] | activity at 100 µM (Aβ1-40; [4]) [%] | activity at 100 µM (Aβ1-42; [3]) [%] | activity at 100 µM (Aβ1-42; [4]) [%] | reduced Aβ1-40 (Aβ1-40; primary screening) | reducing Aβ1-42 (Aβ1-42; primary screening) | Ab1-40 (% of ctl) (Aβ1-40; [3]) | Ab1-40 (% of ctl) (Aβ1-40; [4]) | Ab1-42 (% of ctl) (Aβ1-42; [3]) | Ab1-42 (% of ctl) (Aβ1-42; [4]) |
| --- | --- | --- | --- | --- | --- | --- | --- | --- | --- | --- | --- | --- | --- | --- | --- | --- |
| 84.5 % of ctl | 84.5 % of ctl | 118.3 % of ctl | 118.3 % of ctl |  |  | O=c1cc(-c2ccccc2)oc2cc(O)cc(O)c12 [Chrysin] | 71.6 | 71.6 | 83.4 | 83.4 |  |  |  |  |  |  |
| 97.1 % of ctl | 97.1 % of ctl | 109.3 % of ctl | 109.3 % of ctl |  |  | CC(C)(C)NCC(O)COc1cccc2[nH]c(=O)[nH]c12 (stereo not shown) [2-HYDROXY-4-(2-HYDROXY-3-T-BUTYLAMINOPROPOXY)-BENZIMIDAZOLE] | 99.2 | 99.2 | 104 | 104 |  |  |  |  |  |  |
| 95.2 % of ctl | 95.2 % of ctl | 113.7 % of ctl | 113.7 % of ctl |  |  | CCCNCC(O)COc1ccccc1C(=O)CCc1ccccc1 (stereo not shown) [Propafenone Hydrochloride] | 36.3 | 36.3 | 56.4 | 56.4 | reduced Aβ1-40 | useful in reducing Aβ1-42 |  |  |  |  |
| 46.8 % of ctl | 46.8 % of ctl | 357.6 % of ctl | 357.6 % of ctl |  |  | C=C[C@H]1C[N@@]2CC[C@H]1C[C@@H]2[C@@H](O)c1ccnc2ccc(OC)cc12 [Quinidine Gluconate] | 63.3 | 63.3 | 70 | 70 | reduced Aβ1-40 | useful in reducing Aβ1-42 |  |  |  |  |
| 88.9 % of ctl | 88.9 % of ctl | 104.7 % of ctl | 104.7 % of ctl | 4.44 | 5.0 | NS(=O)(=O)c1cc2c(cc1C(F)(F)F)NC(Cc1ccccc1)NS2(=O)=O (stereo not shown) [Bendrofumethiazide] |  |  |  |  | reduced Aβ1-40 | useful in reducing Aβ1-42 | 76.2 % of ctl | 76.2 % of ctl | 58.4 % of ctl | 58.4 % of ctl |
| 99.4 % of ctl | 99.4 % of ctl | 110.3 % of ctl | 110.3 % of ctl |  |  | NS(=O)(=O)c1cc2c(cc1Cl)N=CNS2(=O)=O [Chlorothiazide] | 107 | 107 | 104 | 104 |  |  |  |  |  |  |
| 97.7 % of ctl | 97.7 % of ctl | 110.3 % of ctl | 110.3 % of ctl |  |  | NS(=O)(=O)c1cc2c(cc1Cl)NC(C1CC3C=CC1C3)NS2(=O)=O (stereo not shown) [Cyclothiazide] | 71.1 | 71.1 | 75 | 75 | reduced Aβ1-40 | useful in reducing Aβ1-42 |  |  |  |  |
